Tests used:
Type in all cases: cell-based
mPiezo1 = biological target: T1, mPiezo1 (Mus musculus, UniProt E2JF22); test: FLIPR calcium influx (Fluo3), transfected HEK293T, 384-well; conditions: agonist; pH 7.4, HBSS with 1.26 mM CaCl2; unreliable (compound insolubility above ~20 μM)
T1 construct: gene Piezo1; full-length cDNA transiently transfected in HEK293T (mPiezo1-IRES GFP for imaging and patch clamp); for bilayers purified protein as in Coste et al. 2012

mPiezo2 = biological target: T2, mPiezo2 (Mus musculus, UniProt Q8CD54); test: whole-cell patch clamp of mechanically activated currents, transfected HEK293T; conditions: 10 μM Yoda1, up to 5 min, -80 mV; selectivity control
T2 construct: gene Piezo2; cDNA transiently transfected in HEK293T cells

hPiezo1 = biological target: T3, hPiezo1 (Homo sapiens, UniProt Q92508); test: FLIPR calcium influx (Fluo3), transfected HEK293T, 384-well; conditions: agonist; pH 7.4, HBSS with 1.26 mM CaCl2; unreliable (compound insolubility above ~20 μM)
T3 construct: gene PIEZO1; cDNA transiently transfected in HEK293T cells
T3 sequence (Q92508 whole entry): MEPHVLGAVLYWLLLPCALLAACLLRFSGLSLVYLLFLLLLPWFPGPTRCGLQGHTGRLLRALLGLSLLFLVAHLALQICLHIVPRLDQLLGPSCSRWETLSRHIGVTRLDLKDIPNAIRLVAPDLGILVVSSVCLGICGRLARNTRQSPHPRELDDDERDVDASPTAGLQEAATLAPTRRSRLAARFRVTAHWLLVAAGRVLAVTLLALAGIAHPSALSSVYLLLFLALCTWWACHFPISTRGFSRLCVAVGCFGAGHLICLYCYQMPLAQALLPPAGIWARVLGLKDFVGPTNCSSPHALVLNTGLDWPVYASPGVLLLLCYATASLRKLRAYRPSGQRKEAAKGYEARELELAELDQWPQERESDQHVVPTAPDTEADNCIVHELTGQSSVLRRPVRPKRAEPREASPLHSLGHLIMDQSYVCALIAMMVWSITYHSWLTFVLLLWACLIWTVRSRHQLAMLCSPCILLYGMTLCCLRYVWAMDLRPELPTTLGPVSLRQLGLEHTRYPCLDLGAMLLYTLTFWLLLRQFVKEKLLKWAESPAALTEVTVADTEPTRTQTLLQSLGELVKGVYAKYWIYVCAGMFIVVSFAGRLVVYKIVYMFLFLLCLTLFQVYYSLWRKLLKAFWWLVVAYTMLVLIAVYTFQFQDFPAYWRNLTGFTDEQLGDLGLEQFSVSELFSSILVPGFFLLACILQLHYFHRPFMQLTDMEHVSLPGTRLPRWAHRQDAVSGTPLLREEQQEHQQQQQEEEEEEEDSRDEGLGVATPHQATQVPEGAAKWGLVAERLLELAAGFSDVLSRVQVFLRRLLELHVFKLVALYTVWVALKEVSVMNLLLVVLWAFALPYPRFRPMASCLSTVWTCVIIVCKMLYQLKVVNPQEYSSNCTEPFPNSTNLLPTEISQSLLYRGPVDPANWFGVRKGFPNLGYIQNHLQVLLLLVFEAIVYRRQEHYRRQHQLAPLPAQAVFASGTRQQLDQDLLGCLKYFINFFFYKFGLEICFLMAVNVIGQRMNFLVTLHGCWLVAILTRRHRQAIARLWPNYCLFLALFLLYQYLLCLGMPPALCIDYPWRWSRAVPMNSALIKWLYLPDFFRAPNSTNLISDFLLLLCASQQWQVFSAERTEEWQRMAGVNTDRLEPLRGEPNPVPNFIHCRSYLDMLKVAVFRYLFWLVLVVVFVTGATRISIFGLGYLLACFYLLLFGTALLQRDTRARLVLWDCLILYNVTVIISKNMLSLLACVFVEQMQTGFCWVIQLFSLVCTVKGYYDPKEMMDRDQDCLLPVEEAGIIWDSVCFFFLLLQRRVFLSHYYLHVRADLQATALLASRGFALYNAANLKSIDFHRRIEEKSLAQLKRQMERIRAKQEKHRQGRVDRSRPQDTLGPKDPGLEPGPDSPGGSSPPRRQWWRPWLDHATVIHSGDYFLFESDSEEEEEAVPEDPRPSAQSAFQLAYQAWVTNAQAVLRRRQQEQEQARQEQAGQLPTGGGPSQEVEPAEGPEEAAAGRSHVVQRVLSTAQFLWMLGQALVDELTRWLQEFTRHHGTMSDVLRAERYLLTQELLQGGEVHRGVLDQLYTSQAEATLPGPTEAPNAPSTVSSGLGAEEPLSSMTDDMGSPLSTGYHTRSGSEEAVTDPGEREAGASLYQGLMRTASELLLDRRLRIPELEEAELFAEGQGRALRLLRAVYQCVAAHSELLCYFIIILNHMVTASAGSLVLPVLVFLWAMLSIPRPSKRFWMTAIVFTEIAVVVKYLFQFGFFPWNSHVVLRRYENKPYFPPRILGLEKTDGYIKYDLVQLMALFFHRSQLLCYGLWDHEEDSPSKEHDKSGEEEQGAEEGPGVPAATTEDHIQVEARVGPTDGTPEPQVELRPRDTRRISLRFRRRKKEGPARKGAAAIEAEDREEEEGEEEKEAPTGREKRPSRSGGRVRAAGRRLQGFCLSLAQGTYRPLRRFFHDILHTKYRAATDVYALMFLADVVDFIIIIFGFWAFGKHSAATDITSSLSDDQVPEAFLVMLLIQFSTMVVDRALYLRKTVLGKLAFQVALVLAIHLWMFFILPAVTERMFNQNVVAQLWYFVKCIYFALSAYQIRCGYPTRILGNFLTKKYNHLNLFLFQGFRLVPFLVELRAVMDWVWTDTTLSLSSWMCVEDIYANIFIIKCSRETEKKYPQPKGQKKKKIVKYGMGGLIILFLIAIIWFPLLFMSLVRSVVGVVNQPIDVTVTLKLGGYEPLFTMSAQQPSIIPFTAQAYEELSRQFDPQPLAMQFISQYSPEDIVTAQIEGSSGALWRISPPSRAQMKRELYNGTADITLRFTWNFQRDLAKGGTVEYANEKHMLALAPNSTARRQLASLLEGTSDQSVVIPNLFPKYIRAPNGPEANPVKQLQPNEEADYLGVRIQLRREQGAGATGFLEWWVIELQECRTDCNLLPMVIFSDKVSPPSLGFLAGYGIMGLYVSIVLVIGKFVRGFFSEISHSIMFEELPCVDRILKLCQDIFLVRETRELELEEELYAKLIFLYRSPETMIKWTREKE

T1 sequence (E2JF22 whole entry): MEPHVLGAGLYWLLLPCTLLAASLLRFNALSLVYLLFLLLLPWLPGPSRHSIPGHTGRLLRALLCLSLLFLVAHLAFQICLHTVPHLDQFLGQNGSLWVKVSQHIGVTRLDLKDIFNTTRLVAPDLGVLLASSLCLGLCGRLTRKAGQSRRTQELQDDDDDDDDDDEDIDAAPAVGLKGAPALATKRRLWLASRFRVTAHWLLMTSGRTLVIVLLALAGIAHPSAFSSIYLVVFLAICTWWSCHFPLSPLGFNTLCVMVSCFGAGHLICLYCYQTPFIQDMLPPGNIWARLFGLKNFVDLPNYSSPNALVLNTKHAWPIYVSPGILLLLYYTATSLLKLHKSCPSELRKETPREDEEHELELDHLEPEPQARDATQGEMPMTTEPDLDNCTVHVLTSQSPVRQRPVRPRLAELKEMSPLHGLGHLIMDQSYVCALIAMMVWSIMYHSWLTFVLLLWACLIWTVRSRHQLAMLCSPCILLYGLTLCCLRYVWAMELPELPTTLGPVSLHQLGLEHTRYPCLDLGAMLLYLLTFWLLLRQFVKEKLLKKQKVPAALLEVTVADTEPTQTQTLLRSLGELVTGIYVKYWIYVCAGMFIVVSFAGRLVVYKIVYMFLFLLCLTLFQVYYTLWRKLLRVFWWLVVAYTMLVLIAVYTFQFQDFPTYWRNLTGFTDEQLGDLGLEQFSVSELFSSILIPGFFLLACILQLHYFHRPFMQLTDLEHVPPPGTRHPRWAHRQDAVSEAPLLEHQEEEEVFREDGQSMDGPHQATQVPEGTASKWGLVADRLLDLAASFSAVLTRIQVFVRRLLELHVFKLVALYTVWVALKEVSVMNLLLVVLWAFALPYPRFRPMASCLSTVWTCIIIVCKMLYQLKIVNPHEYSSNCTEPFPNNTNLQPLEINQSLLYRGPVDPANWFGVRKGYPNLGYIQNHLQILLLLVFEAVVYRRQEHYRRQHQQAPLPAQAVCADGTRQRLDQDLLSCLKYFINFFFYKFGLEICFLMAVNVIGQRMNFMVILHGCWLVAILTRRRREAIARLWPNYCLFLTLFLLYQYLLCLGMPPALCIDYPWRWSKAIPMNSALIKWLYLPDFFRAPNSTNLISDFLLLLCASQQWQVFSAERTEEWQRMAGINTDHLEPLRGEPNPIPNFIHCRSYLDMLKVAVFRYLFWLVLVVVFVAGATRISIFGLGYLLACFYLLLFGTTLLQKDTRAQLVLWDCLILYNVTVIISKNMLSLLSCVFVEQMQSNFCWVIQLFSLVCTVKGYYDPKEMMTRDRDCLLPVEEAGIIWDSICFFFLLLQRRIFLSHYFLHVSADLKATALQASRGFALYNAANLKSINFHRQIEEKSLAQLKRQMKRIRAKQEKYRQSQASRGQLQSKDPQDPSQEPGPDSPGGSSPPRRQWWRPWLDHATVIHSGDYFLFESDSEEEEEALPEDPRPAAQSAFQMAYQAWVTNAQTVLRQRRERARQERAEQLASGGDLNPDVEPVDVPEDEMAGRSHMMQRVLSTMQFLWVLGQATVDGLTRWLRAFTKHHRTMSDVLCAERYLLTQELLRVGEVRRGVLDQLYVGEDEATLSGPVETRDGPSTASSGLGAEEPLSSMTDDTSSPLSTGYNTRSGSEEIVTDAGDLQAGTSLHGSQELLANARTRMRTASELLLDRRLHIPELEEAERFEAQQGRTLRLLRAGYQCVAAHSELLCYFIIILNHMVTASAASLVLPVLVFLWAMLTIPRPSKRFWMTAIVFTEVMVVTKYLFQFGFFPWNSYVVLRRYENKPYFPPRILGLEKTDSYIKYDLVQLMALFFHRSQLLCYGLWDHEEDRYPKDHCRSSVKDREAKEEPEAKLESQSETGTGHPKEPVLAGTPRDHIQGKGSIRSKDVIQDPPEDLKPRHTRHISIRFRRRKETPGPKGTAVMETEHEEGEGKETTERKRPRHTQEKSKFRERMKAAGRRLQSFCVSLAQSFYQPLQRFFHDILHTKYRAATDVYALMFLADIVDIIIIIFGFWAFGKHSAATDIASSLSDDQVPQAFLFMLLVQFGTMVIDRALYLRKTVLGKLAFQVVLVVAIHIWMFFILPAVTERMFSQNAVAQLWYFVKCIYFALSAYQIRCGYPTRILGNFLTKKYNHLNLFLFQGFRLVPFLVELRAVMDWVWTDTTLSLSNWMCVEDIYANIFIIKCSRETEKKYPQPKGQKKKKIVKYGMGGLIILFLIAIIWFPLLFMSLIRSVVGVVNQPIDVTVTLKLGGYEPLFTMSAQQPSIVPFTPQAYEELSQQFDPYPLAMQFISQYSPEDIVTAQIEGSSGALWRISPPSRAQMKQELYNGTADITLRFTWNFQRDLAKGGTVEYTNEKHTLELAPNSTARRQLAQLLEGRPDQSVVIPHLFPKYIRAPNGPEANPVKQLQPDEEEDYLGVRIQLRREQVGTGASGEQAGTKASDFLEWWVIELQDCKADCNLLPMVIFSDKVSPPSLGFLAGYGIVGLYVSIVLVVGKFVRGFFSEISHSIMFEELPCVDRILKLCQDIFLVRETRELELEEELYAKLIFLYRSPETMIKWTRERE

apparent EC50 (mPiezo1): 17.1 (95% CI 13.4 to 21.9) μM | apparent EC50 (hPiezo1): 26.6 (95% CI 20.6 to 34.4) μM
SMILES: Clc1cccc(Cl)c1CSc1nnc(-c2cnccn2)s1 [Yoda1]
whole-cell patch clamp of mechanically activated currents, transfected HEK293T (mPiezo2): No effect was observed upon Yoda1 exposure

From PMC4456433, “Chemical activation of the mechanotransduction channel Piezo1” (eLife, 2015)
